How the values were obtained:
Assay type in all cases: biochemical
[1] = biological target: T1, PM20D1-flag (Mus musculus, UniProt Q8C165); test: hydrolysis, LC-MS; conditions: 100 µM substrate, 100 µg conditioned medium protein, PBS, 1 hr 37°C
T1 construct: flag-tagged, secreted, conditioned medium of transfected HEK293T cells
T1 sequence (Q8C165 25-503): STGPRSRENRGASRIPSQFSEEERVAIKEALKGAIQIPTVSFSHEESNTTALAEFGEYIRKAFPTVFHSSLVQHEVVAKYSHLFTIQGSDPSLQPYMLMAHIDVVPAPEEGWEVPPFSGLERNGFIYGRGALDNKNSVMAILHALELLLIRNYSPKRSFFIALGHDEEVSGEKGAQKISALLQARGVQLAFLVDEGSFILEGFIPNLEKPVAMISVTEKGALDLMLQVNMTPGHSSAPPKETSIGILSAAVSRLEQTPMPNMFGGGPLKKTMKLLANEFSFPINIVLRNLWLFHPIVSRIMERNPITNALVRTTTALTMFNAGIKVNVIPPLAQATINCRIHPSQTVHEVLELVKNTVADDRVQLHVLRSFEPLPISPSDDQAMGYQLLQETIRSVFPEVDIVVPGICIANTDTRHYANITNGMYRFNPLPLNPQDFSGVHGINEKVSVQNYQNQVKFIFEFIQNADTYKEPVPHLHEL

[2] = biological target: T2, FAAH-flag (Mus musculus, UniProt O08914); test: hydrolysis, LC-MS; conditions: 100 µM substrate, 100 µg lysate protein, PBS, 1 hr 37°C
T2 construct: C-terminal flag tag, transient transfection in HEK293T, cell lysate
T2 sequence (O08914 1-579): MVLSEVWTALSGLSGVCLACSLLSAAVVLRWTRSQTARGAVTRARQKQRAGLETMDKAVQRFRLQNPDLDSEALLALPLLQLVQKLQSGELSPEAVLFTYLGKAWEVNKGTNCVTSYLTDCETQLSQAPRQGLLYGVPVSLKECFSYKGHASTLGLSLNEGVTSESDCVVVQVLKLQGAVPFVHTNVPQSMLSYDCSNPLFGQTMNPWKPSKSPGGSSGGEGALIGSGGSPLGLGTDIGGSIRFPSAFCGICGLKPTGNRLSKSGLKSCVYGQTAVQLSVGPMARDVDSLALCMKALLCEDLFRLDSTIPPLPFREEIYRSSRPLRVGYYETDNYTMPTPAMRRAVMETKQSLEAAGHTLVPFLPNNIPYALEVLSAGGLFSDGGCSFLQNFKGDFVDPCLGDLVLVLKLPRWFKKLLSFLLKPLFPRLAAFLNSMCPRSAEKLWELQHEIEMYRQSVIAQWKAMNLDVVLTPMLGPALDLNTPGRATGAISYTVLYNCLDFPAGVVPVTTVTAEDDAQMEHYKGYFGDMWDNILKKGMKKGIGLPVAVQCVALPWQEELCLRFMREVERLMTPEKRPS

[3] = biological target: T1, PM20D1-flag; test: condensation with amino acid (synthase direction), LC-MS; conditions: co-substrates Gly, Ser or Phe; PBS, 1 hr 37°C

Row | Structure (SMILES) | hydrolysis, LC-MS [2] | also measured
1 | CCCCC/C=C\C/C=C\C/C=C\C/C=C\CCCC(=O)NCC(=O)O [C20:4-Gly] |  | hydrolysis, LC-MS [1]: PM20D1 exhibited robust hydrolysis activity only on C20:4-Gly
2 | CCCCC/C=C\C/C=C\C/C=C\C/C=C\CCCC(=O)N[C@@H](CO)C(=O)O [C20:4-Ser] | A strong preference was observed for C20:4-Ser over the other three N-acyl amino acid substrates | 
3 | CCCCC/C=C\C/C=C\C/C=C\C/C=C\CCCC(=O)NCCO [anandamide] | FAAH showed robust hydrolysis activity with anandamide as a substrate | 
4 | CCCCC/C=C\C/C=C\C/C=C\C/C=C\CCCC(=O)O [arachidonic acid] |  | condensation with amino acid (synthase direction), LC-MS [3]: PM20D1 also efficiently catalyzed the condensation of arachidonic acid with all three
